{
  "source": "patent US20250092056A1",
  "about": "“URACIL DERIVATIVES HAVING VIRUS REPLICATION INHIBITORY ACTIVITY AND PHARMACEUTICAL COMPOSITION COMPRISING THE SAME” (Shionogi & Co., Ltd., priority 2022, published 2025)",
  "data": [
    {"test_system": "SARS-CoV-2", "assay": "Cytopathic effect (CPE) suppression effect confirmation test using HEK293T/ACE2-TMPRSS2 cells", "assay_type": "cell-based", "conditions": "Severe acute respiratory syndrome coronavirus 2, HEK-293T, 72 h; HEK293T/ACE2-TMPRSS2 cells, CPE suppression, CellTiter-Glo 2.0 after 3 days culture; read-out: EC50 (50% SARS-CoV-2 infected cell death inhibitory concentration), class", "units": {"EC50": "nM"}, "values": [
      {"molecule": "Cc1cc(-n2c(=O)c(-c3cc(Cl)cc(C(F)(F)F)c3)c(N3CCC(C(F)(F)F)CC3)n(CC#N)c2=O)cc(=O)[nH]1", "note": "[Compound I-200]", "EC50": "< 100"},
      {"molecule": "N#CCn1c(N2CC3(CCOC3)C2)c(Cc2cc(F)c(F)c(F)c2)c(=O)n(-c2cnc3cc(F)ccn23)c1=O", "note": "[Compound I-145]", "EC50": "100 to 1000"}
    ]},
    {"test_system": "SARS-CoV-2", "assay": "Cytopathic effect (CPE) suppression effect confirmation test using HEK293T/ACE2-TMPRSS2 cells", "assay_type": "cell-based", "conditions": "Severe acute respiratory syndrome coronavirus 2, HEK-293T; 50% SARS-CoV-2 infected cell death inhibitory concentration; HEK293T/ACE2-TMPRSS2 cells; read-out: EC50", "units": {"EC50": "nM"}, "values": [
      {"molecule": "N#CCn1c(N2CC(C(F)(F)F)C2)c(-c2ccc(F)c(Cl)c2)c(=O)n(-c2cncc(OCF)n2)c1=O", "note": "[Compound I-421]", "EC50": "< 100"},
      {"molecule": "N#CCn1c(N2C[C@@H]3C[C@H]2CO3)c(-c2cc(F)c(F)c(C#N)c2)c(=O)n(-c2cncc(Cl)c2)c1=O", "note": "[Compound I-370]", "EC50": "< 100"},
      {"molecule": "N#CCn1c(CCC(F)(F)F)c(-c2ccc(F)c(Cl)c2)c(=O)n(-c2cncc(Cl)c2)c1=O", "note": "[Compound I-324]", "EC50": "< 100"},
      {"molecule": "N#CCn1c(CCC2(O)CCC2)c(-c2ccc(F)c(C(F)F)c2)c(=O)n(-c2cncc(C#N)c2)c1=O", "note": "[Compound I-424]", "EC50": "< 100"},
      {"molecule": "Cc1cncc(-n2c(=O)c(-c3ccc(F)c(Cl)c3)c(-c3ccc(S(N)(=O)=O)cc3)n(CC#N)c2=O)c1", "note": "[Compound I-275]", "EC50": "100 to 1000"},
      {"molecule": "N#CCn1c(C2CC2)c(-c2ccc(F)c(Cl)c2)c(=O)n(-c2cncc(Cl)c2)c1=O", "note": "[Compound I-388]", "EC50": "< 100"},
      {"molecule": "N#CCn1c(C2CC(F)(F)C2)c(-c2ccc(F)c(Cl)c2)c(=O)n(-c2cncc(Cl)c2)c1=O", "note": "[Compound I-394]", "EC50": "< 100"},
      {"molecule": "N#CCn1c(N2CC(OC(F)F)C2)c(-c2ccc(F)c(C#N)c2)c(=O)n(-c2cncc(Cl)c2)c1=O", "note": "[Compound I-375]", "EC50": "< 100"},
      {"molecule": "Cc1cncc(-n2c(=O)c(-c3ccc(F)c(Cl)c3)c(N3C[C@@H]4C[C@H]3CO4)n(CC#N)c2=O)c1", "note": "[Compound I-225]", "EC50": "< 100"},
      {"molecule": "N#CCn1c(N2C[C@@H]3C[C@H]2CO3)c(-c2ccc(F)c(C#N)c2)c(=O)n(-c2cncc(Cl)c2)c1=O", "note": "[Compound I-376]", "EC50": "< 100"},
      {"molecule": "N#CCn1c(N2CCC(F)(F)CC2)c(-c2cc(F)c(F)c(F)c2)c(=O)n(-c2cncc(Cl)c2)c1=O", "note": "[Compound I-326]", "EC50": "< 100"},
      {"molecule": "N#CCn1c(C2CCC2)c(-c2ccc(F)c(Cl)c2)c(=O)n(-c2cncc(Cl)c2)c1=O", "note": "[Compound I-395]", "EC50": "< 100"},
      {"molecule": "N#CCn1c(N2CCC(F)(F)CC2)c(-c2cc(Cl)cc(C#N)c2)c(=O)n(-c2cncc(Cl)c2)c1=O", "note": "[Compound I-330]", "EC50": "< 100"},
      {"molecule": "N#CCn1c(N2CC(OC(F)F)C2)c(-c2ccc(F)c(C(F)F)c2)c(=O)n(-c2cncc(Cl)c2)c1=O", "note": "[Compound I-342]", "EC50": "< 100"},
      {"molecule": "N#CCn1c(N2C[C@@H]3C[C@H]2CO3)c(-c2ccc(F)c(F)c2)c(=O)n(-c2cncc(Cl)c2)c1=O", "note": "[Compound I-320]", "EC50": "< 100"},
      {"molecule": "Cc1cc(-n2c(=O)c(-c3ccc(F)c(Cl)c3)c(N3CC4(C3)CC(F)(F)C4)n(CC#N)c2=O)[nH]c(=O)c1", "note": "[Compound I-221]", "EC50": "1000 to 5000"},
      {"molecule": "Cc1cc(-n2c(=O)c(-c3ccc(F)c(Cl)c3)c(N3CC4(C3)CC(F)(F)C4)n(CC#N)c2=O)c[n+]([O-])c1", "note": "[Compound I-278]", "EC50": "100 to 1000"},
      {"molecule": "N#CCn1c(N2CC(F)(C3CC3)C2)c(-c2ccc(F)c(Cl)c2)c(=O)n(-c2cncc(OCF)n2)c1=O", "note": "[Compound I-410]", "EC50": "< 100"},
      {"molecule": "Cc1c(-c2ccc(F)c(Cl)c2)c(=O)n(-c2cncc(Cl)c2)c(=O)n1CC(N)=O", "note": "[Compound I-441]", "EC50": "< 100"},
      {"molecule": "N#CCn1c(N2CC(C(F)(F)F)C2)c(-c2ccc(F)c(Cl)c2)c(=O)n(-c2cncc(C#N)c2)c1=O", "note": "[Compound I-310]", "EC50": "< 100"},
      {"molecule": "N#CCn1c(N2CC3(C2)CC(F)(F)C3)c(-c2cncc(Cl)c2)c(=O)n(-c2cncc(Cl)c2)c1=O", "note": "[Compound I-258]", "EC50": "< 100"},
      {"molecule": "Cc1cc(-n2c(=O)c(-c3ccc(F)c(Cl)c3)c(-c3ccc(C(F)F)cc3)n(CC#N)c2=O)cc(=O)[nH]1", "note": "[Compound I-220]", "EC50": "100 to 1000"},
      {"molecule": "Cc1cncc(N2C(=O)N(CC#N)CC3(COc4ccc(Cl)cc43)C2=O)c1", "note": "(racemic) [Compound I-282]", "EC50": "< 100"},
      {"molecule": "N#CCn1c(N2CC(C(F)(F)F)C2)c(-c2ccc(F)c(Cl)c2)c(=O)n(-c2cncc(OCF)c2)c1=O", "note": "[Compound I-352]", "EC50": "< 100"}
    ]},
    {"target": "Recombinant SARS-CoV-2 3CL Protease (Severe acute respiratory syndrome coronavirus 2 (2019-nCoV) (SARS-CoV-2), UniProt P0DTD1)", "assay": "biochemical", "assay_type": "biochemical", "conditions": "50% SARS-CoV-2 3CL protease inhibitory concentration; read-out: IC50", "units": {"IC50": "nM"}, "values": [
      {"molecule": "N#CCn1c(N2CC(C(F)(F)F)C2)c(-c2ccc(F)c(Cl)c2)c(=O)n(-c2cncc(OCF)n2)c1=O", "note": "[Compound I-421]", "IC50": "< 10"},
      {"molecule": "N#CCn1c(N2C[C@@H]3C[C@H]2CO3)c(-c2cc(F)c(F)c(C#N)c2)c(=O)n(-c2cncc(Cl)c2)c1=O", "note": "[Compound I-370]", "IC50": "< 10"},
      {"molecule": "N#CCn1c(CCC(F)(F)F)c(-c2ccc(F)c(Cl)c2)c(=O)n(-c2cncc(Cl)c2)c1=O", "note": "[Compound I-324]", "IC50": "< 10"},
      {"molecule": "N#CCn1c(CCC2(O)CCC2)c(-c2ccc(F)c(C(F)F)c2)c(=O)n(-c2cncc(C#N)c2)c1=O", "note": "[Compound I-424]", "IC50": "< 10"},
      {"molecule": "Cc1cncc(-n2c(=O)c(-c3ccc(F)c(Cl)c3)c(-c3ccc(S(N)(=O)=O)cc3)n(CC#N)c2=O)c1", "note": "[Compound I-275]", "IC50": "< 10"},
      {"molecule": "N#CCn1c(C2CC2)c(-c2ccc(F)c(Cl)c2)c(=O)n(-c2cncc(Cl)c2)c1=O", "note": "[Compound I-388]", "IC50": "< 10"},
      {"molecule": "N#CCn1c(C2CC(F)(F)C2)c(-c2ccc(F)c(Cl)c2)c(=O)n(-c2cncc(Cl)c2)c1=O", "note": "[Compound I-394]", "IC50": "< 10"},
      {"molecule": "N#CCn1c(N2CC(OC(F)F)C2)c(-c2ccc(F)c(C#N)c2)c(=O)n(-c2cncc(Cl)c2)c1=O", "note": "[Compound I-375]", "IC50": "< 10"},
      {"molecule": "Cc1cncc(-n2c(=O)c(-c3ccc(F)c(Cl)c3)c(N3C[C@@H]4C[C@H]3CO4)n(CC#N)c2=O)c1", "note": "[Compound I-225]", "IC50": "< 10"},
      {"molecule": "N#CCn1c(N2C[C@@H]3C[C@H]2CO3)c(-c2ccc(F)c(C#N)c2)c(=O)n(-c2cncc(Cl)c2)c1=O", "note": "[Compound I-376]", "IC50": "< 10"},
      {"molecule": "N#CCn1c(N2CCC(F)(F)CC2)c(-c2cc(F)c(F)c(F)c2)c(=O)n(-c2cncc(Cl)c2)c1=O", "note": "[Compound I-326]", "IC50": "< 10"},
      {"molecule": "N#CCn1c(C2CCC2)c(-c2ccc(F)c(Cl)c2)c(=O)n(-c2cncc(Cl)c2)c1=O", "note": "[Compound I-395]", "IC50": "< 10"},
      {"molecule": "N#CCn1c(N2CCC(F)(F)CC2)c(-c2cc(Cl)cc(C#N)c2)c(=O)n(-c2cncc(Cl)c2)c1=O", "note": "[Compound I-330]", "IC50": "< 10"},
      {"molecule": "N#CCn1c(N2CC(OC(F)F)C2)c(-c2ccc(F)c(C(F)F)c2)c(=O)n(-c2cncc(Cl)c2)c1=O", "note": "[Compound I-342]", "IC50": "< 10"},
      {"molecule": "N#CCn1c(N2C[C@@H]3C[C@H]2CO3)c(-c2ccc(F)c(F)c2)c(=O)n(-c2cncc(Cl)c2)c1=O", "note": "[Compound I-320]", "IC50": "< 10"},
      {"molecule": "Cc1cc(-n2c(=O)c(-c3ccc(F)c(Cl)c3)c(N3CC4(C3)CC(F)(F)C4)n(CC#N)c2=O)[nH]c(=O)c1", "note": "[Compound I-221]", "IC50": "> 100"},
      {"molecule": "Cc1cc(-n2c(=O)c(-c3ccc(F)c(Cl)c3)c(N3CC4(C3)CC(F)(F)C4)n(CC#N)c2=O)c[n+]([O-])c1", "note": "[Compound I-278]", "IC50": "< 10"},
      {"molecule": "N#CCn1c(N2CC(F)(C3CC3)C2)c(-c2ccc(F)c(Cl)c2)c(=O)n(-c2cncc(OCF)n2)c1=O", "note": "[Compound I-410]", "IC50": "< 10"},
      {"molecule": "Cc1c(-c2ccc(F)c(Cl)c2)c(=O)n(-c2cncc(Cl)c2)c(=O)n1CC(N)=O", "note": "[Compound I-441]", "IC50": "10 to 100"},
      {"molecule": "N#CCn1c(N2CC(C(F)(F)F)C2)c(-c2ccc(F)c(Cl)c2)c(=O)n(-c2cncc(C#N)c2)c1=O", "note": "[Compound I-310]", "IC50": "< 10"},
      {"molecule": "N#CCn1c(N2CC3(C2)CC(F)(F)C3)c(-c2cncc(Cl)c2)c(=O)n(-c2cncc(Cl)c2)c1=O", "note": "[Compound I-258]", "IC50": "< 10"},
      {"molecule": "Cc1cc(-n2c(=O)c(-c3cc(Cl)cc(C(F)(F)F)c3)c(N3CCC(C(F)(F)F)CC3)n(CC#N)c2=O)cc(=O)[nH]1", "note": "[Compound I-200]", "IC50": "10 to 100"},
      {"molecule": "N#CCn1c(N2CC3(CCOC3)C2)c(Cc2cc(F)c(F)c(F)c2)c(=O)n(-c2cnc3cc(F)ccn23)c1=O", "note": "[Compound I-145]", "IC50": "10 to 100"},
      {"molecule": "Cc1cc(-n2c(=O)c(-c3ccc(F)c(Cl)c3)c(-c3ccc(C(F)F)cc3)n(CC#N)c2=O)cc(=O)[nH]1", "note": "[Compound I-220]", "IC50": "< 10"},
      {"molecule": "Cc1cncc(N2C(=O)N(CC#N)CC3(COc4ccc(Cl)cc43)C2=O)c1", "note": "(racemic) [Compound I-282]", "IC50": 2800},
      {"molecule": "N#CCn1c(N2CC(C(F)(F)F)C2)c(-c2ccc(F)c(Cl)c2)c(=O)n(-c2cncc(OCF)c2)c1=O", "note": "[Compound I-352]", "IC50": "< 10"}
    ]}
  ]
}
